Publication PMC10608790, “Structural Diversity and Biological Activity of Cyanopeptolins Produced by Nostoc edaphicum CCNP1411” (Marine Drugs, 2023)

How the values were obtained:
Type in all cases: biochemical
trypsin = molecular target: T1, trypsin (Bos taurus, UniProt P00760); experiment: Trypsin inhibition assay; details: class symbol instead of IC50
T1 sequence (P00760 24-246): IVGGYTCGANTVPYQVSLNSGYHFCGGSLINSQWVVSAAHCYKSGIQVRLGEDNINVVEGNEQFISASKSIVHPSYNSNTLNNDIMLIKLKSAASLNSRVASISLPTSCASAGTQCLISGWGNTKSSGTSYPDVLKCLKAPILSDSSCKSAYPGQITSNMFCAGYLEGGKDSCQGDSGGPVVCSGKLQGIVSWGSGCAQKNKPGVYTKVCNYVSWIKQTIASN
Procedure: (§1) The enzyme inhibitory activity of cyanopeptolins was assayed against trypsin [108], chymotrypsin, thrombin [109], and elastase as described before. In brief, the samples were prepared and serially diluted (1 mg, 1:1—1:10,000 times) in 1% DMSO; the standard inhibitors: aprotinin (trypsin and chymotrypsin) AEBSF 4-(2-aminoethyl)benzenesulfonyl fluoride hydrochloride (thrombin), elastatinal (elastase) (all from Sigma Aldrich; St. Louis, MO, USA) were also prepared in 1% DMSO. DMSO (1%) without the addition of the enzyme served as a negative control. All tests were carried out in triplicates. After the incubation of the assay mixtures, the absorbances were measured at 405 nm (Varioskan Flash Thermo Fisher Scientific OY, Vantaa, Finland). The reduction in enzyme activity greater than 50% was considered as significant.

elastase = elastase (Sus scrofa, UniProt P00772); experiment: Elastase inhibition assay; details: class symbol instead of IC50
Sequence of elastase (P00772 27-266): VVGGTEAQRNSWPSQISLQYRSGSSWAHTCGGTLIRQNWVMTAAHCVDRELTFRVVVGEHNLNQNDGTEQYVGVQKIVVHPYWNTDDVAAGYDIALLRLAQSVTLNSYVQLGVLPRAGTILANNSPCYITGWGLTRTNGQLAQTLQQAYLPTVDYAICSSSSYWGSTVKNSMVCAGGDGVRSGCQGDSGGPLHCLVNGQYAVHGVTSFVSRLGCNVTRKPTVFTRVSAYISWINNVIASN
Procedure: as §1

chymotrypsin = experiment: Chymotrypsin inhibition assay; details: read-out: CHY (chymotrypsin) IC50
Procedure: as §1, with “In” for “The enzyme inhibitory activity of cyanopeptolins was assayed against trypsin [108], chymotrypsin, thrombin [109], and elastase as described before. In”

thrombin = thrombin (Homo sapiens, UniProt P00734); experiment: Thrombin inhibition assay; details: highest concentration in the assay 45 µg × mL−1
Procedure: as §1

SMILES: CCCCCC(=O)N[C@@H](CC(=O)O)C(=O)N[C@@H]1C(=O)N[C@@H](Cc2ccccc2)C(=O)N[C@H]2CC[C@@H](O)N(C2=O)[C@@H](Cc2ccccc2)C(=O)N(C)[C@@H](Cc2ccccc2)C(=O)N[C@@H](C(C)C)C(=O)O[C@@H]1C [CP 981, [Thr + Phe + Ahp + Phe + MePhe + Val]Asp + HA]
- TRY (trypsin) inhibition class (trypsin): − (not active (inhibition below 50%))
- E (elastase) inhibition class (elastase): − (not active (inhibition below 50%))
- IC50 (chymotrypsin): 3.92 µM
- TRB (thrombin) inhibition class (thrombin): − (not active (inhibition below 50%))
